# In article PMC12172621 (ACS chemical neuroscience, 2024):
# Several values for one entry are separate records, joined by “and”; a condition that tells them apart may be missing. Identical values can stand only once. Like-named read-outs stand apart in the source and are kept apart here.
# Key:
# [1] = in vitro; conditions: mouse
# [2] = test system: PK-resistant PrP (PrP^Sc) in ScN2a-RML cells; assay type: cell-based, mouse; conditions: read-out: EC50, effective concentration for 50% reduction of PrP^Sc levels in ScN2a-RML cells
# [3] = target: sigma-2 receptor (σ2R, Tmem97) (Homo sapiens, UniProt Q5BJF2); test: biochemical; assay type: binding
# sigma-2 receptor (σ2R, Tmem97), sequence (Q5BJF2 whole entry, species assumed): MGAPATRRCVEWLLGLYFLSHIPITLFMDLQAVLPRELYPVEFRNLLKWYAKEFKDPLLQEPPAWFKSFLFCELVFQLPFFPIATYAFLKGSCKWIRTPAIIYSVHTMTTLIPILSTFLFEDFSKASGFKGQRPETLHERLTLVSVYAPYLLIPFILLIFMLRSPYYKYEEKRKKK
# [4] = test system: ScN2a-RML cells
# [5] = cited from earlier work
# [6] = test system: cultured hippocampal neurons exposed to purified RML PrP^Sc; assay type: cell-based
# [7] = test system: total PrP (PrP^C) in uninfected N2a cells; assay type: cell-based, mouse
# [8] = test system: seeding activity of RML prions on recombinant bank vole PrP; assay type: biochemical; conditions: 2× the EC50 (79 μM)
# [9] = test system: PK-resistant PrP in Hrh1^0/0 cells
# [10] = target: sigma-1 receptor (σ1R, Sigmar1) (Homo sapiens, UniProt Q99720); test: biochemical; assay type: binding
# sigma-1 receptor (σ1R, Sigmar1), sequence (Q99720 whole entry, species assumed): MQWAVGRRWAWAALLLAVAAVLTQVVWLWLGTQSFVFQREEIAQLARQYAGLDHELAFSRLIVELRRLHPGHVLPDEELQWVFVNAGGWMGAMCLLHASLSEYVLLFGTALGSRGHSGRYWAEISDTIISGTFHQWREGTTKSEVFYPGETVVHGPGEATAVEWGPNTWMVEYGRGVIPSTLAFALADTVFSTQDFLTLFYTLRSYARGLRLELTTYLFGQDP
# [11] = test system: PK-resistant PrP in Rosa26-targeted ScN2a cells; assay type: cell-based, mouse
# [12] = test system: PK-resistant PrP in Sigmar1 + Tmem97 KO cells; assay type: cell-based, mouse
# [13] = test system: PK-resistant PrP in N2a cells chronically infected with 22L prions; assay type: cell-based, mouse
compound,measurement,setting,value
OC(CCCN1CCN(c2ncc(F)cn2)CC1)c1ccc(F)cc1 (stereo not drawn) [BMY-14802],CC50,[1],> 50 µM
"COc1ccc(CCN2CCN(CCCc3ccccc3)CC2)cc1OC [SA 4503, Cutamesine]",EC50,[2],27.2 µM
same,Ki,[3]; read-out: Kiσ2R,0.0175 µM
same,CC50,[4],> 50 µM
same,Tolerability in phase II trial,[5]; ischemic stroke,well tolerated
C[C@@H]1CN(CCCn2c3ccccc3c3ccccc32)C[C@H](C)N1 [rimcazole],Ki,[3],0.0496 µM
same,Mean number of dendritic spines/μm,[6],0.86 ± 0.02 spines/μm and 0.82 ± 0.02 spines/μm
same,"[SRA]min, minimum concentration capable of preventing hippocampal spine retraction",[6],0.5 µM
same,CC50,[1],10 µM
O=C(CCCN1CCC(O)(c2ccc(Cl)cc2)CC1)c1ccc(F)cc1 [haloperidol],Mean number of dendritic spines/μm,[6],0.85 ± 0.03 spines/μm and 0.73 ± 0.04 spines/μm
same,Levels of total PrP compared to DMSO treatment,[7],92.0 ± 3.5%
CN(C)CCN(C)CCc1ccc(Cl)c(Cl)c1 [BD1047],EC50,[2],19 µM
same,Ki,[3]; read-out: Kiσ2R,0.013 µM
same,Mean number of dendritic spines/μm,[6],0.74 ± 0.02 spines/μm and 0.78 ± 0.04 spines/μm
same,"[SRA]min, minimum concentration capable of preventing hippocampal spine retraction",[6],0.5 µM
same,CC50,[4],> 25 µM
same,Levels of total PrP compared to DMSO treatment,[7]; 19 μM,94.9 ± 0.9%
"CN(C)CC1CCOC1(c1ccccc1)c1ccccc1 (stereo not drawn) [ANAVEX2–73, Blarcamesine]",Lag phase in RT-QuIC,[8],slight increase in the lag phase
same,Ki,[3],2.03 µM
same,"TI, therapeutic index (LC50/EC50)",[4]; mouse,>1.3
same,CC50,[1],> 50 µM
same,Levels of PK-resistant PrP relative to DMSO-treated controls,[9],25.7 ± 6.2%
same,Ki,[10],0.442 µM
same,Selectivity for σ1R (σ1R/σ2R),[10],σ1R (4.5 x)
same,Levels of PK-resistant PrP relative to DMSO-treated controls,[11],70.4 ± 1.1% and 42.6 ± 1.7%
same,Tolerability in phase II trials,[5]; Alzheimer’s and Parkinson’s diseases,well tolerated
same,Levels of PK-resistant PrP relative to DMSO-treated controls,[12]; 39.5 μM,57.9 ± 9.0%
CCCCc1oc2ccccc2c1C(=O)c1cc(I)c(OCCN(CC)CC)c(I)c1 [amiodarone],Ki,[3],0.171 µM
COc1cccc2c1CCCC2CCCN1CCN(C2CCCCC2)CC1 (stereo not drawn) [PB-28],EC50,[2],5.1 µM
same,"[SRA]min, minimum concentration capable of preventing hippocampal spine retraction",[6],0.1 µM
same,CC50,[4],7.8 µM
same,Levels of total PrP compared to DMSO treatment,[7],85.3 ± 3.4%
CCCN1CCC=C(c2cc(-c3ccc(C)cc3)no2)C1 [PD 144418],EC50,[2],5.2 µM
same,Ki,[3]; read-out: Kiσ2R,0.351 µM
same,"[SRA]min, minimum concentration capable of preventing hippocampal spine retraction",[6],10 µM
same,CC50,[4],> 22 µM
same,"TI, therapeutic index (LC50/EC50)",[4],>4.2
same,Levels of total PrP compared to DMSO treatment,[7],97.5 ± 4.8%
same,EC50,[13]; read-out: EC50 against 22L prions,12.6 µM
same,Selectivity for σ1R (σ1R/σ2R),[10],σ1R (319.1 x)
same,Ki,[10]; read-out: Kiσ1R,0.0011 µM
same,Levels of PK-resistant PrP relative to DMSO-treated controls,[11],81.1 ± 5.0%
same,Levels of PK-resistant PrP relative to DMSO-treated controls,[12],56.6 ± 5.8%
CC(C)=CCN1CC[C@]2(C)c3cc(O)ccc3C[C@H]1[C@H]2C [(+)-pentazocine],CC50,[1],> 50 µM
"Cc1ccccc1NC(=N)Nc1ccccc1C [DTG, ditolylguanidine]",CC50,[1],> 50 µM
CN1CCN(CCc2ccc(Cl)c(Cl)c2)CC1 [BD1063],EC50,[2],12.3 µM
same,Ki,[3]; read-out: Kiσ2R,0.123 µM
same,Mean number of dendritic spines/μm,[6],0.69 ± 0.03 spines/μm and 0.63 ± 0.03 spines/μm
same,"[SRA]min, minimum concentration capable of preventing hippocampal spine retraction",[6],1 µM
same,CC50,[4],> 50 µM
same,"TI, therapeutic index (LC50/EC50)",[4],>4.1
same,Levels of total PrP compared to DMSO treatment,[7]; 12.3 μM,85.8 ± 4.4%
same,Levels of PK-resistant PrP relative to DMSO treatment,[13],63.3 ± 1.2%
same,Levels of PK-resistant PrP relative to DMSO-treated controls,[9],42.6 ± 6.7%
same,Selectivity for σ1R (σ1R/σ2R),[10],σ1R (45.7 x)
same,Ki,[10]; read-out: Kiσ1R,0.0027 µM
same,Levels of PK-resistant PrP relative to DMSO-treated controls,[12],60.3 ± 4.0%
